Measured values as given in ChEMBL document CHEMBL1159242, “Studies on the inhibitory effects of caffeoylquinic acids on monocyte migration and superoxide ion production” (J Nat Prod, 1995).
Calls of active or inactive are those of the source. No cut-off for these calls is given here.

Legend:
Monocyte [1] = experiment: Inhibition of healthy human monocyte migration assessed as chemotactic index at 100 nM after 45 mins; type: functional, cell-based
Monocyte [2] = experiment: Inhibition of O2- radical production in zymosan-stimulated healthy human monocyte measured after 1 hr at 37 degC; type: functional, cell-based
[3] = Cytotoxicity against human monocytes measured by LDH activity; type: cell-based; settings: monocyte
Monocyte [4] = experiment: Inhibition of healthy human monocyte migration assessed as chemotactic index at 0.01 nM after 45 mins; type: functional, cell-based
Monocyte [5] = experiment: Inhibition of healthy human monocyte migration assessed as chemotactic index at 0.1 pM after 45 mins; type: functional, cell-based
Monocyte [6] = experiment: Inhibition of healthy human monocyte migration assessed as chemotactic index at 0.001 to 0.00001 pM; type: functional, cell-based
Monocyte [7] = experiment: Inhibition of healthy human monocyte migration assessed as chemotactic index at 0.001 to 0.00001 pM after >45 mins; type: functional, cell-based
Monocyte [8] = experiment: Inhibition of O2- radical production in zymosan-stimulated healthy human monocyte measured after 45 mins at 37 degC; type: functional, cell-based
Monocyte [9] = experiment: Inhibition of O2- radical production in zymosan-stimulated healthy human monocyte assessed as increase in H2O production after 1 hr at 37 degC; type: functional, cell-based
Monocyte [10] = experiment: Inhibition of O2- radical production in zymosan-stimulated healthy human monocyte assessed as inhibition H2O2 production after 1 hr at 37 degC; type: functional, cell-based

Structure (SMILES) | Activity (Monocyte [1]) | Activity (Monocyte [2]) | Activity [3] | Activity (Monocyte [4]) | Activity (Monocyte [5]) | Activity (Monocyte [6]) | Activity (Monocyte [7]) | Activity (Monocyte [8]) | Activity (Monocyte [9]) | Activity (Monocyte [10])
O=C(/C=C/c1ccc(O)c(O)c1)O[C@H]1[C@H](O)C[C@](O)(C(=O)O)C[C@H]1OC(=O)/C=C/c1ccc(O)c(O)c1 | inactive | Dose-dependent effect | Non-toxic | – | – | – | – | – | – | –
O=C(/C=C/c1ccc(O)c(O)c1)O[C@@H]1C[C@](O)(C(=O)O)C[C@@H](OC(=O)/C=C/c2ccc(O)c(O)c2)[C@H]1OC(=O)/C=C/c1ccc(O)c(O)c1 | – | – | Non-toxic | – | – | – | – | – | – | –
O=C(/C=C/c1ccc(O)c(O)c1)O[C@@H]1C[C@](O)(C(=O)O)C[C@@H](OC(=O)/C=C/c2ccc(O)c(O)c2)[C@H]1O | – | Dose-dependent effect | Non-toxic | Active | Active | Active | inactive | Active | Active | Active
